What was measured:
[1] = biological target: MMP-9; settings: cited from earlier work
[2] = Plasma and brain levels and pharmacokinetics of SB-3CT and p-OH SB-3CT after repeated i.p. SB-3CT (UPLC/ESI-MRM); settings: mice
Procedure: (§1) Under anesthesia, terminal blood was collected in heparin tubes through the posterior vena cava at various time points after the last dose, and tubes were centrifuged to collect plasma. Whole brain samples were harvested after transcardiac perfusion with saline and immediately flash frozen in liquid nitrogen and stored at −80°C until analysis. […] At 10 minutes after the last dose, whole brain samples were rapidly dissected into different regions (cortex, striatum, hippocampus, cerebellum and brain stem), and immediately frozen in dry ice.
(§2) A 75-µL aliquot of plasma was mixed with 150 µL of internal standard in acetonitrile. The sample was centrifuged at 10,000×g for 10 minutes. Brain samples were weighed and homogenized for 5 minutes in one volume equivalent of cold acetonitrile, containing an internal standard, using a bullet blender (Next Advance, Inc., Averill Park, NY). For regional brain distribution, the striatum, hippocampus, cerebellum and brain stem samples were pooled from 3 different mice for analysis.
The homogenates were centrifuged twice at 20,000×g for 20 minutes at 4°C. […] Quantification was performed using peak area ratios relative to the internal standard and linear regression parameters were calculated from the calibration curve standards prepared in blank mouse plasma (and blank brain). The internal standard used in all of the analyses was N-(4-(4-((thiiran-2-ylmethyl)sulfonyl)phenoxy)phenyl)methanesulfonamide [43], which was analyzed by MRM using the transition 398→261.
Pharmacokinetic parameters were calculated as follows. The area under the mean concentration-time curve up to the last quantifiable sampling time (AUC 0–last) was calculated by the trapezoidal rule using the pharmacokinetic software PK Solutions (Version 2.0, Summit Research Services, Montrose, CO). The AUC-time curve from time zero to infinity (AUC 0–∞), representing systemic exposure of a therapeutic agent in the body, was calculated as AUC 0–last+(C last/k), where C last is the concentration at the last quantifiable sampling time and k is the elimination rate constant. Half-lives (t ½α and t ½β) were estimated from the linear segment of the initial or terminal portion of the concentration-time data by linear regression, where the slope of the line was the rate constant k and t ½ = ln 2/k.

[3] = Regional brain distribution of SB-3CT and p-OH SB-3CT after repeated i.p. SB-3CT; format: in vivo, mouse; settings: mice
Procedure: as §1, §2
The homogenates were centrifuged twice at 20,000×g for 20 minutes at 4°C. […] Quantification was performed using peak area ratios relative to the internal standard and linear regression parameters were calculated from the calibration curve standards prepared in blank mouse plasma (and blank brain). The internal standard used in all of the analyses was N-(4-(4-((thiiran-2-ylmethyl)sulfonyl)phenoxy)phenyl)methanesulfonamide [43], which was analyzed by MRM using the transition 398→261. The chromatographic, MRM conditions, and method validation were the same as previously described [17].

[4] = repeated 25 mg/kg i.p. SB-3CT, 20 min after last dose
[5] = repeated 25 mg/kg i.p. SB-3CT, 30 min after last dose
[6] = 10 minutes after the last i.p. dose of SB-3CT

In the case of O=S(=O)(CC1CS1)c1ccc(Oc2ccc(O)cc2)cc1 (stereo not shown) [p-OH SB-3CT], the Ki [1] is given as 160 nM, the “AUC 0–last, brain” value ([2]; repeated 25 mg/kg i.p. SB-3CT) is given as 2.98 pmol·min/mg and the “AUC 0–last, plasma” value ([2]; repeated 25 mg/kg i.p. SB-3CT) is given as 1.45 µM·min. The “AUC 0–∞, brain” value ([2]; repeated 25 mg/kg i.p. SB-3CT) was 4.61 pmol·min/mg, the “t ½α, brain” value ([2]; repeated 25 mg/kg i.p. SB-3CT) was 4.2 min and the “t ½α, plasma” value ([2]; repeated 25 mg/kg i.p. SB-3CT) was 3.4 min. For the same molecule, the “t ½β (elimination half-life), brain” value ([2]; repeated 25 mg/kg i.p. SB-3CT) was 187 min, the Brain concentration ([2]; repeated 25 mg/kg i.p. SB-3CT (0, 2, 24 h), 10 min after last dose) was 0.14±0.04 pmole/mg tissue and the Plasma concentration ([2]; repeated 25 mg/kg i.p. SB-3CT, 10 min after last dose) was 120 ± 30 nM. For the same molecule, the Brain concentration [2, 4] was 0.026±0.005 pmole/mg tissue, the Plasma concentration [2, 4] was 16 ± 4 nM and the Brain concentration [2, 5] was 0.015±0.004 pmole/mg tissue. The Plasma concentration [2, 5] was 6 ± 1 nM, the Brain concentration ([2]; repeated 25 mg/kg i.p. SB-3CT, 60 min after last dose) was 0.011±0.007 pmole/mg tissue and the Brain concentration ([2]; repeated 25 mg/kg i.p. SB-3CT, 90 min after last dose) was 0.0081±0.0022 pmole/mg tissue. For the same molecule, the Brain concentration ([2]; repeated 25 mg/kg i.p. SB-3CT, 120 min after last dose) was 0.0076±0.0009 pmole/mg tissue, the Brain concentration ([2]; repeated 25 mg/kg i.p. SB-3CT, 180 min after last dose) was 0.0060±0.0004 pmole/mg tissue and the “Brain AUC /Plasma AUC” value ([2]; ratio of AUC 0–last, repeated 25 mg/kg i.p. SB-3CT) was 2.1. The “Conc, whole brain” value ([3]; 10 minutes after the last i.p. dose of SB-3CT (25 mg/kg at 0, 2, 24 h)) was 0.14±0.04 pmole/mg tissue, the “Conc, brain stem” value [3, 6] was 0.13±0.03 pmole/mg tissue and the “Conc, cerebellum” value [3, 6] was 0.13±0.03 pmole/mg tissue. The “Conc, cortex” value [3, 6] was 0.16±0.05 pmole/mg tissue, the “Conc, hippocampus” value [3, 6] was 0.11±0.03 pmole/mg tissue and the “Conc, plasma” value [3, 6] was 120 ± 30 nM. The “Conc, striatum” value [3, 6] was 0.12±0.04 pmole/mg tissue, the “Ratio of concentration, brain stem to plasma” value [3, 6] was 1.1±0.4 and the “Ratio of concentration, cerebellum to plasma” value [3, 6] was 1.1±0.4. The “Ratio of concentration, cortex to plasma” value [3, 6] was 1.3±0.5, the “Ratio of concentration, hippocampus to plasma” value [3, 6] was 0.92±0.34 and the “Ratio of concentration, striatum to plasma” value [3, 6] was 1.0±0.4. For the same molecule, the “Ratio of concentration, whole brain to plasma” value [3, 6] was 1.2±0.4.

Source: article PMC3806745, “Selective Inhibition of Matrix Metalloproteinase-9 Attenuates Secondary Damage Resulting from Severe Traumatic Brain Injury” (PLoS ONE, 2013)
